In one test the target is T1, p75-Fc (Homo sapiens, UniProt P08138).
T1 construct: purchased R&D
T1 sequence (P08138 29-250 limits assumed): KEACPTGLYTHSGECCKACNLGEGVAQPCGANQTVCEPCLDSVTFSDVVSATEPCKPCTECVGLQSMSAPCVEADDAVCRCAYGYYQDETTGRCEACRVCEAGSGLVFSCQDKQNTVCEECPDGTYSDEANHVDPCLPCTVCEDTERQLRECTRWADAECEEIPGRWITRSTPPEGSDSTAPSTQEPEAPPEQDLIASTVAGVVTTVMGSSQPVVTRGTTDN
As to the kind of experiment: Competitive ELISA, p75-Fc binding to immobilized NGF. The conditions noted are these: 0.75 h; binding to immobilized NGF, no cpd = 100%; p75-Fc 50 nM; as described for FIG. 1A (compounds 30 μM); below 100% indicates inhibition. How it is done: (§1) The effect of compounds I-B and LM-24 on the binding between NGF and p75 was tested in competitive ELISA assays, where the antagonists prevent soluble p75 from binding to immobilized NGF. The selectivity of antagonism was evaluated by lack of effect upon NGF-TrkA or lack of effect between NGF and anti-NGF monoclonal antibody (mAb) NGF30 interactions (FIG. 1A).
The compound LM-24 has been reported by others (Massa et al., 2006). Binding studies were carried out with all the compounds using I-B as reference.
(§2) Competitive ELISAs were performed as described (Saragovi et al., 1998). The procedure immobilized 50 ng/well NGF, or pro-NGF (Alomone Labs, Israel) onto polystyrene 96-well microtest plates, with washing and blocking with binding buffer (BB; phosphate buffered saline containing 0.5% bovine serum albumin). The following primary reagents in BB were added: recombinant chimeric p75-Fc or recombinant chimeric TrkA-Fc (R&D), or anti-NGF mAb NGF30 (Saragovi et al., 1998); each at 50 nM. The competitors I-B and the other test compounds (or control LM-24) were added at the indicated concentrations, and the plates were incubated for 45 minutes. After washing 3× in BB, HRP-conjugated secondary reagents (Sigma) were added for 30 min (goat anti-human Fc for p75-Fc and for TrkA-Fc; and goat anti-rat Ab for NGF30 mAb), and then wells were washed 3× in BB and 1× in PBS. Peroxidase activity was determined colorimetrically using the substrate TMB One Solution (Promega). The reaction was stopped with 0.5 N H2SO4 and the plates were read at 450 nm (Benchmark Plus, Bio-Rad). Assays were repeated n>4 times, with replicates of 4 wells each assay. […] Wells with no NGF immobilized but with all other reagents added were treated as background (<15% of maximal signals) and standardized to 0% binding.

The next test concerns the target T2, TrkA-Fc (Homo sapiens, UniProt P04629).
T2 construct: purchased R&D
In words: Competitive ELISA, TrkA-Fc binding to immobilized NGF (selectivity control). The following applies: binding to immobilized NGF, no cpd = 100%; TrkA-Fc 50 nM; as described for FIG. 1A. How it is done: as §1, §2

A further test concerns B104 cells. As to the kind of experiment: Pro-NTF killing assay (MTT), B104 cells. Format: cell-based. The following applies: 50 nM, 72 hours, p<0.05. How it is done: (§3) The effect of I-B on the pro-apoptotic function of pro-NGF or pro-BDNF was tested in functional MTT assays measuring cell metabolism (FIG. 1B).
(§4) Cells (5,000 cells/well) were cultured in 96-well plates (Falcon, Lincoln Park, N.J.) in normal culture media (RPMI1640, Hepes, Glutamine, 5% serum). Wells were supplemented with NGF, BDNF, pro-NGF, or pro-BDNF (Alomone Labs) (50 nM final), in the presence or absence of I-B (20 μM final). Wells containing all culture conditions but no cells were used as blanks. The growth/survival profile of the cells was quantified using MTT (Sigma) 72 hours after plating. Optical density readings of MTT were done in a Benchmark Plus microplate Spectrophotometer (BioRad) at 595 nm with blanks subtracted.

Another test concerns nnr5 cells. As to the kind of experiment: Pro-NTF killing assay (MTT), nnr5 cells. Format: cell-based. The following applies: 50 nM, 72 hours, p<0.05. How it is done:
as §3, §4

The next test relates to anti-NGF mAb NGF30. In words: Competitive ELISA, anti-NGF mAb NGF30 binding to immobilized NGF (selectivity control). The following applies: binding to immobilized NGF, no cpd = 100%; mAb NGF30 50 nM; as described for FIG. 1A. How it is done:
as §1, §2
On the technique in general: In an ELISA, binding on a coated surface is turned into a signal by an enzyme label.

The text below walks through data of patent publication US9296691B2, “Inhibitors of p75 receptor and their uses” (Horacio Uri Saragovi, priority 2010, dated 2016).

T2 sequence (P04629 33-423 limits assumed): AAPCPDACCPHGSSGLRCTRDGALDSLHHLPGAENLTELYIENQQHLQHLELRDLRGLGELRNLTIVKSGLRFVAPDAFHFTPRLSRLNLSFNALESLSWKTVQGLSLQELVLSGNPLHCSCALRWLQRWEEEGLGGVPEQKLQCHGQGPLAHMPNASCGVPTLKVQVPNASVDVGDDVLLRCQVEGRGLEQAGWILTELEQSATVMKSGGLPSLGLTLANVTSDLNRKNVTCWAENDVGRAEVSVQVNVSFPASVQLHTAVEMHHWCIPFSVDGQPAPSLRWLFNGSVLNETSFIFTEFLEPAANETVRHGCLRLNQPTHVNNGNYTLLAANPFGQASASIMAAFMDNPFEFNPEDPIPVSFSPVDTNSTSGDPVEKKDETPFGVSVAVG

With `Cn1c(=O)c2c(ncn2CC(=O)N(C(=O)NC2CCCCC2)C2CCCCC2)n(C)c1=O` [I-G], the remaining activity at 30 µM on p75-Fc stood at 62%. For the same molecule, the “TrkA-Fc binding AVERAGE” value at TrkA-Fc amounted to 99%.
With `Cc1ccc(NC(=O)N(C(=O)CCc2c[nH]c3ccccc23)c2ccc(C)cc2)cc1` [I-S, 3-(1H-indol-3-yl)-N-p-tolyl-N-(p-tolylcarbamoyl)propanamide], the remaining activity at 30 µM at p75-Fc came out at 56%.
For “Pro-NGF: precursor of nerve growth factor (Alomone Labs), pro-apoptotic p75 ligand”, the “cell viability (MTT), growth factor alone” value in the test on B104 cells and in the test with nnr5 cells was “reduced the viability” each time.
As for `Cn1c(=O)c2c(ncn2CC(=O)NCCC(F)(F)F)n(C)c1=O` [I-F, 2-(1,3-dimethyl-2,6-dioxo-2,3-dihydro-1H-purin-7(6H)-yl)-N-(3,3,3-trifluoropropyl)acetamide], on p75-Fc, the remaining activity at 30 µM is 73%. Besides, the “TrkA-Fc binding AVERAGE” value on TrkA-Fc was determined as 91%.
As for `Cn1c(=O)c2c(ncn2CC(=O)OCCCN)n(C)c1=O` [II-D, 3′-Aminopropyl (1,3-dimethyl-2,6-dioxo-2,3-dihydro-1H-purin-7(6H)-yl)acetate], the remaining activity at 30 µM on p75-Fc was 69%. Moreover, the “TrkA-Fc binding AVERAGE” value on TrkA-Fc was found to be 116%. For the same molecule, the “NGF30 binding AVERAGE” value with anti-NGF mAb NGF30 is 91%.
`Cn1c(=O)c2c(ncn2CC(=O)NCCCC(F)(F)F)n(C)c1=O` [I-A, 2-(1,3-dimethyl-2,6-dioxo-2,3-dihydro-1H-purin-7(6H)-yl)-N-(4,4,4-trifluorobutyl)acetamide] gave a remaining activity at 30 µM on p75-Fc of 74%. Besides, the “TrkA-Fc binding AVERAGE” value at TrkA-Fc turned out to be 105%. In the test with anti-NGF mAb NGF30, the “NGF30 binding AVERAGE” value was 86%.
Take `CC(C)NC(=O)N(C(=O)Cc1c[nH]c2ccccc12)C(C)C` [I-Q, 2-(1H-indol-3-yl)-N-isopropyl-N-(isopropylcarbamoyl)acetamide]: at p75-Fc, the remaining activity at 30 µM was found to be 53%.
Same read-out and setting: as for `CC(C)NC(=O)N(C(=O)CCc1c[nH]c2ccccc12)C(C)C` [I-R, 3-(1H-indol-3-yl)-N-isopropyl-N-(isopropylcarbamoyl)propanamide], the figure is 59%.
`Cn1c(=O)c2c(ncn2CC(=O)OCCCNC(=O)OCc2ccccc2)n(C)c1=O` [II-E, 3′-(Benzyloxycarbonylamino)propyl (1,3-dimethyl-2,6-dioxo-2,3-dihydro-1H-purin-7(6H)-yl)acetate] came in with a remaining activity at 30 µM at p75-Fc of 56%. Besides, the “TrkA-Fc binding AVERAGE” value on TrkA-Fc was 94%. The “NGF30 binding AVERAGE” value in the test with anti-NGF mAb NGF30 is recorded as 89%.
For `CCCn1c(=O)c2c(ncn2CC(=O)OC)n(CCC)c1=O` [II-N, Methyl 2-(2,6-dioxo-1,3-dipropyl-2,3-dihydro-1H-purin-7(6H)-yl)acetate], the remaining activity at 30 µM on p75-Fc was 83%.
`COC(=O)Cn1cnc2c1c(=O)n(C)c(=O)n2C` [II-H] had a remaining activity at 30 µM on p75-Fc of 72%. The “TrkA-Fc binding AVERAGE” value at TrkA-Fc worked out at 94%.

B1: pro-BDNF: precursor of brain derived neurotrophic factor (Alomone Labs), pro-apoptotic p75 ligand (protein, UniProt P23560 19-247, looked up)
pro-form: APMKEANIRGQGGLAYPGVRTHGTLESVNGPKAGSRGLTSLADTFEHVIEELLDEDQKVRPNEENNKDADLYTSRVMLSSQVPLEPPLLFLLEEYKNYLDAANMSMRVRRHSDPARRGELSVCDSISEWVTAADKKTAVDMSGGTVTVLEKVPVSKGQLKQYFYETKCNPMGYTKEGCRGIDKRHWNSQCRTTQSYVRALTMDSKKRIGWRFIRIDTSCVCTLTIKRGR
modifications: pro-form
notes: precursor of brain derived neurotrophic factor (Alomone Labs), pro-apoptotic p75 ligand
For B1, the “cell viability (MTT), growth factor alone” value in the test with B104 cells and in the test on nnr5 cells was “reduced the viability” each time.

What is called remaining activity is what remains of the control signal, in per cent. The low end stands for little activity left, the high end for much activity left.
